Experimental data published in paper PMC4434572, “Identification of novel drugs to target dormant micrometastases” (BMC Cancer, 2015).
Like-named read-outs stand apart in the source and are kept apart here.

Experiments:
in vivo = details: mouse
MDA-MB-435 cells = test: Proliferation (CFDA-AM esterase assay) of cells grown on SISgel, plastic or Matrigel, 48 h drug exposure; format: cell-based; details: for EC50: Homo sapiens; for SI (EC50-P/EC50-S): ratio of EC50 on plastic versus SISgel
From the text: The libraries were obtained from the NCI (Diversity Library I) comprised of 2,918 compounds and a 10,000 compound diversity library from ChemBridge, Inc. (DiverSet-EXP). The NCI library is no longer available in the form used here, but how it was constructed is described (http://dtp.nci.nih.gov/branches/dscb/diversity_explanation.html). The ChemBridge library is a subset (Set Code NM1024) of the full 50,000 compound library (http://www.chembridge.com/screening_libraries/diversity_libraries/). Compounds were diluted to 100 μM before use. SISgel was prepared as described previously from powdered porcine small intestine submucosa obtained from Cook Biotech (W. Lafayette, IN). It is a natural product that is used extensively in tissue engineering as a bioscaffold. J82 bladder cancer cells and other cell lines were obtained from the ATCC (Bethesda, MD). The basic principle is that cells grown on any ECM are, in general, expected to show higher resistance to anticancer compounds than when grown on plastic. Therefore, compounds that show a higher activity toward cancer cells on a normal ECM than on a plastic surface would be candidates to target suppressed, micrometastatic cells. Efficacy in vitro was assessed by plating 30,000 cells in 50 μL of high glucose DMEM with penicillin-streptomycin and 10 % fetal calf serum on SISgel in a 96-well plate containing 50 μL of gelled SISgel per well. Cells were allowed to attach and assume the SISgel phenotype for 48 h. A matching plate without SISgel was prepared 24 h later by pipetting 3,000 cells in 100 μL of high glucose DMEM with penicillin-streptomycin and 10 % fetal calf serum into each well of 96 well plate. The cells were allowed to attach and grow for 24 h. These numbers of cells gave approximately equal replication rates at the time drug was added for cells grown on the plastic surface or SISgel as determined by the fraction of S-phase cells identified by flow cytometry. The cells were exposed to drug in fresh medium for 48 h, at which time the cell number was determined using the CFDA-AM cellular esterase proliferation assay (cat. #C1354, Life Technologies). For screening the results are reported as the ratio of cell count of cells on the plastic surface to the cell count on SISgel. An initial difference of 1.5 fold identified potential hits. All potential hits were confirmed in triplicate. Those compounds that replicated were confirmed by a full dose–response study yielding an EC50 using five wells per drug concentration. Data were analyzed using nonlinear regression to a sigmoid curve with Prism 4 (GraphPad Software, Inc., LaJolla, CA). Potential hits that were confirmed by dose–response using J82 were also tested with MDA-MB-435 breast cancer, PC-3 metastatic prostate cancer, Capan1 pancreatic cancer and the J82 bladder cancer cell lines.

mice = test: Toxicity / maximum tolerated dose in mice; details: mice
[1] = test system: cancer cells on SISgel or plastic; test: Activity of leads and analogs on cancer cells grown on plastic vs SISgel (cell line not stated); format: cell-based; details: for SR: ratio IC50-p/IC50-S; for Hit: YES/NO
Description: The NCI library is no longer available in the form used here, but how it was constructed is described (http://dtp.nci.nih.gov/branches/dscb/diversity_explanation.html). The ChemBridge library is a subset (Set Code NM1024) of the full 50,000 compound library (http://www.chembridge.com/screening_libraries/diversity_libraries/). Compounds were diluted to 100 μM before use. SISgel was prepared as described previously from powdered porcine small intestine submucosa obtained from Cook Biotech (W. Lafayette, IN). It is a natural product that is used extensively in tissue engineering as a bioscaffold. J82 bladder cancer cells and other cell lines were obtained from the ATCC (Bethesda, MD). […] Efficacy in vitro was assessed by plating 30,000 cells in 50 μL of high glucose DMEM with penicillin-streptomycin and 10 % fetal calf serum on SISgel in a 96-well plate containing 50 μL of gelled SISgel per well. Cells were allowed to attach and assume the SISgel phenotype for 48 h. A matching plate without SISgel was prepared 24 h later by pipetting 3,000 cells in 100 μL of high glucose DMEM with penicillin-streptomycin and 10 % fetal calf serum into each well of 96 well plate. The cells were allowed to attach and grow for 24 h. […] The cells were exposed to drug in fresh medium for 48 h, at which time the cell number was determined using the CFDA-AM cellular esterase proliferation assay (cat. #C1354, Life Technologies). For screening the results are reported as the ratio of cell count of cells on the plastic surface to the cell count on SISgel. An initial difference of 1.5 fold identified potential hits. All potential hits were confirmed in triplicate. […] Data were analyzed using nonlinear regression to a sigmoid curve with Prism 4 (GraphPad Software, Inc., LaJolla, CA). […]

[2] = test system: 4T1 stem cells (CD44v3highALDH1high 4T1 cells); test: Tumor cell growth inhibition of sphere-derived cancer stem cells (CellTiter-Glo); format: cell-based, mouse; details: suspension culture, 5 days; read-out: EC50 4T1 stem cells in suspension culture
Description: Sphere formation to further increase the fraction of cancer stem cells was induced by suspending CD44v3highALDH1high 4T1 cells in 1:1 Matrigel/basal medium in a total of volume of 100 μl. Samples (5 × 10^4 cells) were then plated around the rims of wells in a 12-well plate and allowed to solidify at 37 °C for 10 min before 1 ml basal medium (with B27 plus 20 ng/mL EGF, 10 ng/mL FGF and 4 μg/mL insulin) was added. Medium was replenished every 3-days. Ten days after plating, spheres (tight, spherical, nonadherent masses >40 μm in diameter) per well were counted, and at least 100 spheres per group were measured. The number of spheres containing CD44v3highALDH1high 4T1 cells in each well and expressed as sphere forming units (SFU) as described previously. The number of SFUs per well was counted in triplicate wells for each condition.
To recover CD44v3highALDH1high 4T1 cells from the spheres, Matrigel–containing wells were treated with 1 mg/ml Dispase solution (Gibco). Spheres were then digested with trypsin and 0.05 % EDTA. CD44v3highALDH1high cells dissociated from spheres were counted by hemacytometer and replated to generate spheres of next generation. Serial passage of individual spheres was regularly performed in order to verify self-renewal capability of cells associated the spheres. Measurement of growth for CD44v3highALDH1high cells (dissociated from spheres) was also performed by incubating these cells in serum-free RPMI-1640 medium for 3-weeks using MTT-based growth assay as described previously.
To analyze tumor cell growth properties, sphere-derived CD44v3highALDH1high 4T1 cells were incubated in basal medium (with B27 plus 20 ng/mL EGF, 10 ng/mL FGF and 4 μg/mL insulin). Medium was replenished every 3-days. Twenty-one days after plating, the number of cell growth was then counted under a microscope at low magnification. In some cases, these sphere-derived CD44v3highALDH1high 4T1 cells were also treated with DT compounds for 5 days or doxorubicin (range 1 μM to 1 mM) for 5 days at 37 °C. The CellTiter-Glo® Luminescent Cell Viability Assay (Promega, Madison, WI) was utilized to determine the number of metabolically active cells based on the quantification of adenosine triphosphate (ATP). The percentage of […] relative to untreated controls was plotted as a linear function of drug concentration. The 50 % inhibitory concentration (IC50) was identified as the concentration of drug required to achieve a 50 % growth inhibition relative to untreated controls.
A stem cell–enriched cell population was prepared as described previously by sorting for ALDH1 and CD44v3. The identification of aldehyde dehydrogenase1 (ALDH1) activity from tumor–derived 4T1 Luc2-GFP cells (PerkinElmer, Waltham, MA) was conducted using the ALDEFLUOR kit (StemCell Technologies, Durham, NC). Specifically, tumor cells were suspended in ALDEFLUOR assay buffer containing ALDH1 substrate (BAAA, […] per 1 × 10^6 cells) and incubated for 30 min at 37 °C. As a negative control, 4T1 cells were treated with a specific ALDH1 inhibitor, […] diethylaminobenzaldehyde (DEAB). Next, for labeling cell surface marker, tumor–derived 4T1 cells were suspended in 100 μl ALDEFLUOR buffer followed by incubating with 20 μl allophycocyanin (APC)-labeled anti-CD44v3 antibody (recognizing the v3-specific domain of CD44) or APC-labeled normal mouse IgG (as a control) (BD Bioscience, San Jose, CA) for 15 min at 4 °C. For FACS sorting, tumor cells were incubated in PBS buffer followed by FACS (BD FACS Aria llu, BD Bioscience, San Jose, CA) sorting using dual-wavelength analysis as described previously. The parental cell line contained 2 % CD44v3highALDH1high cells but the final sorted cells contained 18 % CD44v3highALDH1high cells, a 9-fold enrichment.

[3] = MDA-MB-435 cells on SISgel, read-out: EC50-S
[4] = MDA-MB-435 cells on plastic, read-out: EC50-P
[5] = cells on SISgel, read-out: IC50-S
[6] = cells on plastic, read-out: IC50-p

| Molecule | MTD (in vivo) | EC50 (MDA-MB-435 cells; [3]) | EC50 (MDA-MB-435 cells; [4]) | SI (EC50-P/EC50-S) (MDA-MB-435 cells) | doses at which highly toxic to mice (mice) | toxicity in mice (mice) | IC50 [1, 5] | IC50 [1, 6] | SR [1] | EC50 [2] | Hit [1] |
| --- | --- | --- | --- | --- | --- | --- | --- | --- | --- | --- | --- |
| COc1ccc(C2C3=C(CCCC3=O)NC3=C2C(=O)c2ccccc23)c(OC)c1OC (centres unmarked) [DT340, 10-(2,3,4-trimethoxyphenyl)-6,7,8,10-tetrahydro-5H-indeno[1,2-b]quinoline-9,11-dione] | < 10 mg/kg | 117 µM | 219 µM | 1.9 | less than 10 mg/kg | dose-limiting toxicity |  |  |  |  |  |
| COc1ccc(CC(=O)Oc2ccc3c(c2)C(C)=CC(C)(C)N3)cc1 [DT350, 2,2,4-trimethyl-1,2-dihydro-6-quinolinyl (4-methoxyphenyl)-acetate] | < 10 mg/kg | 270 µM | 1830 µM | 6.8 | less than 10 mg/kg | dose-limiting toxicity |  |  |  |  |  |
| O=S(=O)([O-])c1ccc(N=Nc2ccc(O)c3ccccc23)cc1.[Na+] [Orange 1] |  |  |  |  |  |  | 1200 µM | 657 µM | 0.55 | 398 µM |  |
| O=S(=O)([O-])c1ccccc1N=Nc1c(S(=O)(=O)[O-])cc2cc(S(=O)(=O)[O-])c(N=Nc3ccccc3S(=O)(=O)[O-])c(O)c2c1O.[Na+].[Na+].[Na+].[Na+] [Sulfanazo II] |  |  |  |  |  |  | 34 µM | 57 µM | 2 |  | YES |
| O=S(=O)([O-])c1ccc(N=Nc2c(S(=O)(=O)[O-])cc3cc(S(=O)(=O)[O-])cc(O)c3c2O)cc1.[Na+].[Na+].[Na+] [Sulfanilic Acid Azochromotrop] |  |  |  |  |  |  | 19 µM | 38 µM | 2.0 |  | YES |
| O=S(=O)(O)c1cc(Cl)cc(N=Nc2c(S(=O)(=O)O)cc3cc(S(=O)(=O)O)c(N=Nc4cc(Cl)cc(S(=O)(=O)O)c4O)c(O)c3c2O)c1O [Sulfochlorophenol S] |  |  |  |  |  |  | 23 µM | 46 µM | 2.0 |  | YES |
| O=S(=O)([O-])c1ccc(N=Nc2c(O)ccc3cc(S(=O)(=O)[O-])ccc23)cc1.[Na+].[Na+] [Sunset Yellow FCF] |  |  |  |  |  |  | 31 µM | 67 µM | 2.2 |  | YES |
| Cc1cc(-c2ccc(/N=N/c3c(S(=O)(=O)O)cc4cc(S(=O)(=O)O)cc(N)c4c3O)c(C)c2)ccc1/N=N/c1c(S(=O)(=O)O)cc2cc(S(=O)(=O)O)cc(N)c2c1O [Trypan Blue] |  |  |  |  |  |  | 36 µM | 159 µM | 4.5 |  | YES |
| Cc1ccc(NC(=O)c2cc3ccccc3c(N=Nc3cc(S(=O)(=O)[O-])ccc3O)c2O)c(C)c1.[Na+] [Xylidyl Blue 1] |  |  |  |  |  |  | 45 µM | 106 µM | 2.4 |  | YES |
| nitrazine Yellow |  |  |  |  |  |  | 33 µM | 65 µM | 2.0 |  | YES |
